Molecules are shown by their SMILES. Where a name gives a salt, the structure may show the parent alone.

Experimental findings from US6949648B2, “Condensed pyrazole derivatives, process for producing the same and use thereof” (Takeda Pharmaceutical Company Limited, priority 2000, dated 2005) are described below.

Data set [1] has as its system OVA-specific IgG2a (Th1 type). Nature of the data set: Effect on antibody production of ovalbumin-sensitized mice: IgG2a. The data set is classed as in vivo, BALB/c mouse. As to conditions: Mus musculus, po, 264 h; 30 mg/kg b.w. orally, 5 days a week during 9-day period; serum 11 days after first sensitization, ELISA; read-out: Suppression Rate (%) IgG2a. The method, then:
(§1) Effect on Antibody Production of Mice Sensitized by Controlled-Release Ovalbumin
(§2) A male BALB/c mouse (Charles River) of 7 weeks old was sensitized by intraabdominal administration, twice at an interval of a week, of a mixture of 10 μg/mouse of ovalbumin (OVA; albumin chicken egg grade III; Sigma Chemical) and 1 mg of aluminum hydroxide hydrate gel suspension (Alum; LSL Co. LTD.). After 11 days from the first sensitization, blood was collected from beneath eye under ether anesthesia, and the amount of OVA-specific IgE, IgG1 (Th2 type) and IgG2a (Th1 type) antibodies in the serum were determined by the ELISA method. A sample compound (30 mg/kg b.w.) was suspended in 0.4 ml of methylcellulose (MC), and the suspension was orally administered, 5 days a week during the 9-day period from the initiation day of sensitization to the day before the day of blood sample collection (1 Group, n=8 to 10).
A general note: An ELISA detects its analyte on a solid surface through an enzyme-linked reagent.

Data set [2] concerns OVA-specific IgE. The experiment in a line: Effect on antibody production of ovalbumin-sensitized mice: IgE. The data set is classed as in vivo, BALB/c mouse. Conditions: Mus musculus, po, 264 h; 30 mg/kg b.w. orally, 5 days a week during 9-day period; serum 11 days after first sensitization, ELISA; read-out: Suppression Rate (%) IgE. The method, then:
as §1, §2

As for `Cc1nn(-c2ccccn2)c2nccc(O)c12` [Example 1-3, 3-Methyl-1-(2-pyridinyl)-1H-pyrazolo[3,4-b]pyridin-4-ol], the inhibition in vivo at 30 mg/kg in data set [1] is -39.5%; in data set [2], 19%.
Turning to `Cc1ccc(-n2nc(C)c3c(=O)c4ccccc4[nH]c32)nc1` [Example 1-55, 3-Methyl-1-(5-methyl-2-pyridinyl)-1,9-dihydro-4H-pyrazolo[3,4-b]quinolin-4-one hydrochloride], the inhibition in vivo at 30 mg/kg in data set [1] is 13.7%; in data set [2], 11.7%.
For the compound `Cc1nn(-c2ccccn2)c2nc3ccc(F)cc3c(Cl)c12` [Example 1-52, 4-Chloro-6-fluoro-3-methyl-1-(2-pyridinyl)-1H-pyrazolo[3,4-b]quinoline], the inhibition in vivo at 30 mg/kg was determined as 39.9% in data set [1] and 41.1% in data set [2].
Taken in the same sequence, the figures for `Cc1nn(-c2cccnc2)c2nc3ccccc3c(N)c12` [Example 1-63, 3-Methyl-1-(3-pyridinyl)-1H-pyrazolo[3,4-b]quinolin-4-ylamine dihydrochloride] were -5.8% and 25.2%.
As to `Cc1nn(-c2ccccn2)c2ncc(C(=O)O)c(O)c12` [Example 1-2, 4-Hydroxy-3-methyl-1-(2-pyridinyl)-1H-pyrazolo[3,4-b]pyridine-5-carboxylic acid], the inhibition in vivo at 30 mg/kg in data set [1] is -67.9%; in data set [2], 29.2%.
As to `Cc1nn(Cc2ccccn2)c2nc3ccccc3c(N)c12` [Example 1-68, 3-Methyl-1-(2-pyridinylmethyl)-1H-pyrazolo[3,4-b]quinolin-4-ylamine], the inhibition in vivo at 30 mg/kg is 31.7% in data set [1] and 31.6% in data set [2].
For `Cc1nn(-c2ccccn2)c2[nH]c3ccc(F)cc3c(=O)c12` [Example 1-53, 6-Fluoro-3-methyl-1-(2-pyridinyl)-1,9-dihydro-4H-pyrazolo[3,4-b]quinolin-4-one], the inhibition in vivo at 30 mg/kg in data set [1] came out at 36.1%; in data set [2], 8%.
Taken in the same sequence, the figures for `Cc1ccc(-n2nc(C)c3c(N)c4ccccc4nc32)nc1` [Example 1-54, 3-Methyl-1-(5-methyl-2-pyridinyl)-1H-pyrazolo[3,4-b]quinolin-4-ylamine] were -148% and 17.6%.
As for `Cc1nn(-c2ccccn2)c2nc3cc(Cl)ccc3c(Cl)c12` [Example 2-73, 4,7-Dichloro-3-methyl-1-(2-pyridinyl)-1H-pyrazolo[3,4-b]quinoline], the melting point is 203 to 204 °C.
`Cc1nn(-c2ccccn2)c2nc3ccccc3c(C)c12` [Example 2-101, 3,4-Dimethyl-1-(2-pyridinyl)-1H-pyrazolo[3,4-b]quinoline] yielded a melting point of 157 to 159 °C.
Consider `NC(=O)Cc1nn(-c2ccccn2)c2[nH]c3ccccc3c(=O)c12` [Example 2-178, 2-[4-Oxo-1-(2-pyridinyl)-4,9-dihydro-1H-pyrazolo[3,4-b]quinolin-3-yl]acetamide], for which the melting point is 302 to 305 °C.
With `Cc1ccc(-n2nc(C)c3c(Cl)c4cccc(C)c4nc32)nc1` [Example 2-131, 4-Chloro-3,8-dimethyl-1-(5-methyl-2-pyridinyl)-1H-pyrazolo[3,4-b]quinoline], the melting point is 165 to 168 °C.
With `Cc1nn(-c2ccccn2)c2nc3cc(F)c(F)cc3c(Cl)c12` [Example 2-90, 4-Chloro-6,7-difluoro-3-methyl-1-(2-pyridinyl)-1H-pyrazolo[3,4-b]quinoline], the melting point lay within 175 to 176 °C.
As to `Cc1nn(-c2ccccn2)c2[nH]c3c(Cl)cc(Cl)cc3c(=O)c12` [Example 2-77, 6,8-Dichloro-3-methyl-1-(2-pyridinyl)-1,9-dihydro-4H-pyrazolo[3,4-b]quinolin-4-one], the melting point was 288 to 289 °C.
Compound `CCCc1c2ccccc2nc2c1c(C)nn2-c1ccccn1` [Example 2-103, 3-Methyl-4-propyl-1-(2-pyridinyl)-1H-pyrazolo[3,4-b]quinoline] showed a melting point of 108 to 109 °C.
For `Cc1nn(-c2ccccn2)c2[nH]c3c(c(=O)c12)CCCCC3` [Example 2-195, 3-Methyl-1-(2-pyridinyl)-5,6,7,8,9,10-hexahydrocyclohepta[b]pyrazolo[4,3-e]pyridin-4(1H)-one], the melting point is 184 to 185 °C.
As to `Cc1nn(-c2ccc(Cl)cn2)c2nc3ccccc3c(Cl)c12` [Example 2-113, 4-Chloro-1-(5-chloro-2-pyridinyl)-3-methyl-1H-pyrazolo[3,4-b]quinoline], the melting point was in the range of 216 to 217 °C.
Same read-out and setting: the figure for `Cc1nn(Cc2ccncc2)c2[nH]c3ccccc3c(=O)c12` [Example 2-192, 3-Methyl-1-(4-pyridinylmethyl)-1,9-dihydro-4H-pyrazolo[3,4-b]quinolin-4-one] is 277 to 280 °C.
In turn, `Cc1nn(-c2ccccn2)c2[nH]c3ccc(S(C)(=O)=O)cc3c(=O)c12` [Example 2-52, 3-Methyl-6-(methylsulfonyl)-1-(2-pyridinyl)-1,9-dihydro-4H-pyrazolo[3,4-b]quinolin-4-one] returned a melting point of more than 300 °C.
As for `Cc1nn(-c2ccccn2)c2[nH]c3c(F)cccc3c(=O)c12` [Example 2-85, 8-Fluoro-3-methyl-1-(2-pyridinyl)-1,9-dihydro-4H-pyrazolo[3,4-b]quinolin-4-one], the melting point came out at 241 °C.
On the same count and under the same terms, to `Cc1cccc2c(N)c3c(C)nn(-c4ccccn4)c3nc12.Cl` belongs 283 to 286 °C; to `Clc1c2ccccc2nc2c1c(CBr)nn2-c1ccccn1` [Example 2-168, 3-Bromomethyl-4-chloro-1-(2-pyridinyl)-1H-pyrazolo[3,4-b]quinoline], 203 to 205 °C.
As to `CCCCN(C)c1c2ccccc2nc2c1c(C)nn2-c1ccccn1` [Example 2-10, N-Butyl-N-methyl-[3-methyl-1-(2-pyridinyl)-1H-pyrazolo[3,4-b]quinolin-4-yl]amine], the melting point lay in the range of 85 to 87 °C.
Regarding `Cc1cccc2c(=O)c3c(C)nn(-c4ccc5ccccc5n4)c3[nH]c12` [Example 2-154, 3,8-Dimethyl-1-(2-quinolinyl)-1,9-dihydro-4H-pyrazolo[3,4-b]quinolin-4-one], the melting point was in the range of 255 to 257 °C.
The compound `Cc1nn(-c2ccccn2)c2[nH]c3ccc(Cl)cc3c(=O)c12` [Example 2-72, 6-Chloro-3-methyl-1-(2-pyridinyl)-1,9-dihydro-4H-pyrazolo[3,4-b]quinolin-4-one] yielded a melting point of 254 to 255 °C.
In the case of `Cc1nn(-c2ccccn2)c2nc3cccc(F)c3c(Cl)c12` [Example 2-78, 4-Chloro-5-fluoro-3-methyl-1-(2-pyridinyl)-1H-pyrazolo[3,4-b]quinoline], the melting point fell in the range of 160 to 161 °C.
Compound `Cc1nn(-c2ccccn2)c2ncc(C(=O)NC3CCCCC3)c(O)c12` [Example 1-8, N-Cyclohexyl-4-hydroxy-3-methyl-1-(2-pyridinyl)-1H-pyrazolo[3,4-b]pyridine-5-carboxamide] returned a melting point of more than 300 °C.
Take `Cc1nn(-c2ccccn2)c2nc3ccc([N+](=O)[O-])cc3c(Cl)c12` [Example 2-53, 4-Chloro-3-methyl-6-nitro-1-(2-pyridinyl)-1H-pyrazolo[3,4-b]quinoline]: the melting point was 282 °C.
The compound `CCOc1cccc(-n2nc(C)c3c(N)c4cccc(C)c4nc32)n1` [Example 2-129, 3,8-Dimethyl-1-(6-ethoxy-2-pyridinyl)-1H-pyrazolo[3,4-b]quinolin-4-ylamine] returned a melting point of 184 to 187 °C.
`CCCSc1c2ccccc2nc2c1c(C)nn2-c1ccccn1` [Example 2-27, 3-Methyl-4-(propylsulfanyl)-1-(2-pyridinyl)-1H-pyrazolo[3,4-b]quinoline] came in with a melting point of 91 to 93 °C.
The compound `COC(=O)Cc1nn(-c2ccccn2)c2nc3ccccc3c(Cl)c12` [Example 2-175, Methyl 2-[4-chloro-1-(2-pyridinyl)-1H-pyrazolo[3,4-b]quinolin-3-yl]acetate] came in with a melting point of 152 to 153 °C.
`Cc1cccnc1-n1nc(C)c2c(N)c3c(C)cccc3nc21` [Example 2-124, 3,5-Dimethyl-1-(3-methyl-2-pyridinyl)-1H-pyrazolo[3,4-b]quinolin-4-ylamine] showed a melting point of 271 to 274 °C.
Regarding `Fc1ccc2nc3c(cnn3-c3ccccn3)c(Cl)c2c1` [Example 2-164, 4-Chloro-6-fluoro-1-(2-pyridinyl)-1H-pyrazolo[3,4-b]quinoline], the melting point was in the range of 176 to 179 °C.
As to `Cc1nn(-c2cccnc2)c2nc3cc(F)c(F)cc3c(Cl)c12` [Example 2-202, 4-Chloro-6,7-difluoro-3-methyl-1-(3-pyridinyl)-1H-pyrazolo[3,4-b]quinoline], the melting point lay within 192 to 194 °C.
The compound `COC(=O)Cc1nn(-c2ccccn2)c2[nH]c3ccccc3c(=O)c12` [Example 2-176, Methyl 2-[4-oxo-1-(2-pyridinyl)-4,9-dihydro-1H-pyrazolo[3,4-b]quinolin-3-yl]acetate] came in with a melting point of 240 to 241 °C.
`Cc1nn(-c2ccccn2)c2ncc(C(=O)NCc3ccccc3)c(O)c12` [Example 1-9, N-Benzyl-4-hydroxy-3-methyl-1-(2-pyridinyl)-1H-pyrazolo[3,4-b]pyridine-5-carboxamide]: the melting point is more than 300 °C.

As usually defined, the melting point is the temperature of the solid-liquid transition.
